Laboratory results published in patent US20040242566A1, “Dipeptidyl peptidase inhibitors” (Syrrx, Inc., priority 2003, published 2004).

Assay: in vitro
Conditions: rat, rat liver microsomes, pH 7.4
Method: Several compounds were evaluated for stability in rat liver microsomes.
The test compounds (1 p) were incubated at 37° C. in phosphate buffer (50 mM, pH 7.4) containing rat liver microsomes (1 mg/mL protein) and NADPH (Nicotinamide Adenine Dinucleotide Phosphate, reduced form) (4 mM). The incubation mixtures were quenched with trichloroacetic acid (0.3 M) over 0, 5, 15, 30 min time-course. Quenched solutions were centrifuged and supernatants were transferred for LC/MS quantitation. The half life of a test compounds was derived from the compound stability curve over the time course.

| half-life at 1 p | SMILES |
| --- | --- |
| 31 min | N#Cc1ccccc1Cn1c(N2CCCC(N)C2)nc2ccc(F)cc2c1=O (stereo not drawn) [Example 6, 2-[2-(3-Amino-piperidin-1-yl)-6-fluoro4-oxo4H-quinazolin-3-ylmethyl]-benzonitrile] |
| 2.5 min | N#Cc1ccccc1Cn1c(N2CCCC(N)C2)nc2ccccc2c1=O (stereo not drawn) [Example 1, 2-[2-(3-Amino-piperidin-1-yl)-4-oxo4H-quinazolin-3-ylmethyl]-benzonitrile] |
| 107 min | COc1cc2nc(N3CCCC(N)C3)n(Cc3ccccc3C#N)c(=O)c2cc1OC (stereo not drawn) [Example 2, 2-[2-(3-Amino-piperidin-1-yl)-6,7-dimethoxy-4-oxo-4H-quinazolin-3-ylmethyl]-benzonitrile] |
